Reference: patent US10736912B2, “Compositions containing PUFA and/or uridine and methods of use thereof” (MASSACHUSETTS INSTITUE OF TECHNOLOGY, priority 2005, dated 2020)

How the values were obtained:
[1] = test system: brain phospholipid levels; assay: Brain phospholipid levels in gerbils given UMP diet and/or PUFA by gavage; assay type: in vivo, gerbil; settings: for Brain phospholipid levels: Table 6
Experimental: (§1) Cells were homogenized in 100 volumes of ice-cold deionized water using a tissue degrader (Polytron PT 10-35, Kinematica AG, Switzerland); 1 ml of aliquots were then mixed with 3 ml of chloroform+methanol mixture (2:1 v/v) and vortexed vigorously for 30 seconds. After cooling for 1 h on ice, the mixture was mixed sequentially with 3 ml of chloroform+methanol mixture (2:1 v/v) and 1 ml of ice-cold deionized water. The mixture was vortexed vigorously and allowed to stand overnight in the cold room (18 h). The organic (lower) and aqueous (upper) phases of the mixtures were separated by centrifugation (10 min at 4° C.; 1000 g). An aliquot (2 ml) of the upper phase was used for determination of CDP-Choline (see below), and 0.1-0.4 ml aliquots of the lower phase were dried under vacuum for phospholipid analysis. Residues of 0.1 ml aliquots of the lower phase were assayed for total phospholipid content by measuring phosphorus. Residues of 0.4 ml aliquots of the lower phase were reconstituted in 40 μl methanol and subjected to thin-layer chromatography using silica G plates (Adsorbosil Plus-1®, Alltech), and a system consisting of chloroform/ethanol/triethylamine/water (30:34:30:8) as the mobile phase. Phospholipid standards were used to identify the corresponding bands under UV light after the plates were sprayed with 0.1% diphenylhexatriene in petroleum ether. Bands for individual phospholipid classes (PC, PE, SM, PS and PI) were scraped off the plates and extracted into 1 ml of methanol; dried under vacuum; and assayed for phosphorus content. Total phosphorus was determined by comparison with standard curves by using KH2PO4 run with each assay. To each sample was added 0.5 ml of 4.5% HclO4/27% H2SO4 and tubes were heated at 180° C. for 3 h. After cooling to room temperature, 5 ml of the color reagent (a 10:1 dilution of solutions containing 2.5 mg/ml ammonium molybdate, 8.2 mg/ml sodium acetate and 100 mg/ml ascorbic acid respectively) was added and the tubes were incubated for 2 h, 37° C. Absorbance was measured spectrophotometrically at 820 nm. Phospholipid mass was determined by multiplying the phosphorus content by 25.
Control standard diet (Table 4) consisted of Teklad Global 16% protein rodent diet (Harlan Teklad, Madison, Wis.), which contained 0.1% choline chloride (CC), corresponding to a daily dose of 50 mg/kg/day. UMP was provided as 0.5% UMP·2Na^+ weight/weight, added to the control diet, also prepared by Harlan Teklad, corresponding to 240 mg/kg/day UMP. DHA was administered as 300 mg/kg/day in 200 microliter (mcL)/day 5% Arabic Gum solution, while groups not receiving DHA were administered vehicle (5% Arabic Gum) alone. DHA was provided by Nu-Chek Prep (Elysian, Minn.) and UMP by Numico (Wagenigen, NL).
Gerbils were anesthetized with ketamine and xylazine (80 and 10 mg/kg bwt, i.p.) and sacrificed by immersing the head into liquid nitrogen for 2 min, followed by decapitation. Brains were immediately and quickly (30 seconds) removed using a bone rongeur and stored at −80° C.
Frozen brain hemispheres were weighed and homogenized in 100 volumes of ice-cold deionized water using a tissue degrader (Polytron PT 10-35, Kinematica AG, Switzerland), then analyzed as described in Example 1.
Protein in whole brain homogenate sample was measured for using bicinchoninic acid reagent (Perkin Elmer, Norwalk, Conn., USA). DNA was measured by measuring 460 nm emission of samples on a fluorometer in the presence of bisbenzimidizole, a fluorescent dye known as Hoechst H 33258 (American Hoechst Corporation), which has an excitation maximum at 356 nm and an emission maximum of 458 when bound to DNA.
Male gerbils weighing 80-100 g were divided into 4 groups of 8 gerbils and administered the supplements depicted in Table 1: […]

SHSY-5Y cells = assay: 14C-choline incorporation into phospholipids in SHSY-5Y cells; assay type: cell-based, human; settings: for Phospholipid synthesis enhanced: 10 μM fatty acid, 18 hr, FIG. 3A
Experimental: SHSY-5Y cells were grown to near confluency in DMEM+10% FBS in 35 mm dishes. Cells were incubated for 18 hr in serum-free DMEM+1% FBS containing 30 μM choline+/−10 μM of DHA, arachidonic acid, or palmitic acid. Cells were then labeled, and labeled phospholipids were quantified as described for Example 1.
DHA was dissolved in ethanol to a […] concentration and frozen in 10 microliter aliquots at −80° C. For each experiment, one aliquot was diluted in ethanol to 10 micromolar; the volume giving the desired final solution in incubation medium was mixed with an equal volume of BSA solution (1 gm/ml).
The effect of omega-6 fatty acids on phospholipid synthesis was next examined in SHSY-5Y cells, a human neuroblastoma cell line. In this case, phospholipid synthesis was enhanced by arachidonic acid, an omega-6 fatty acid, but not by DHA or palmitic acid (FIG. 3A).
The effect of arachidonic acid on phospholipid synthesis in SHSY-5Y cells was further characterized as described for omega-3 fatty acids and PC-12 cells in Example 2.

[2] = test system: brain phospholipid levels; assay: Brain phospholipid levels in rat pups of treated pregnant and nursing mothers; assay type: in vivo; settings: rat pups, postnatal day 20, mean
Experimental: In another study, pregnant rats were allowed to consume ad libitum, for 10 days before parturition and 20 days while nursing, either a choline-containing control diet or this diet supplemented with uridine as UMP; half of each group also received DHA or its diluent daily, by gavage. Pups were then sacrificed and brain slices were examined to determine numbers of hippocampal dendritic spines.
Pregnant and nursing rats were administered DHA and/or uridine as described in Example 9. At 20 days post-birth, rats were sacrificed and brain samples were obtained and assayed for phospholipids. Administration of DHA alone increased brain PC, PI, PE, and sphingomyelin (SM) per cell (DNA) by 36, 166, 38, and 78%, respectively. UMP markedly amplified the effects of DHA to 66, 210, 68, and 99% of control, respectively (Table 8). These increases were greater than those observed in adult animals. Similar results were obtained when normalizing to protein (Table 9). Thus, administration of DHA and/or uridine to pregnant and nursing mothers is able to increase phospholipid levels in the offspring.

brain CDP-choline levels = assay: Brain CDP-choline and CDP-ethanolamine levels in gerbils; assay type: in vivo, gerbil; settings: 28 days
Text: FIGS. 5A and 5B. FIG. 5A illustrates the effect Effects of DHA on brain CDP-choline levels (FIG. 5A) and while FIG. 5B illustrates the effect of DHA on brain CDP-ethanolamine levels (FIG. 5B). Groups of 8 gerbils received either a control or a UMP-containing diet, and, by gavage, DHA (in a vehicle of 5% gum Arabic solution) or 5% gum Arabic solution alone for 28 days. On the 29th day brains were harvested and assayed for CDP-choline. Data are presented as means±SEM. Statistical analysis was performed using one- or two-way ANOVA followed by Tukey test. a: P<0.05 when compared with the values for control diet plus vehicle group; b: P<0.05 when compared with values for UMP diet plus vehicle group.
Aliquots (2 ml) of the upper (aqueous) phase were dried under a vacuum, reconstituted, and injected into an HPLC. The dried samples were reconstituted in 100-200 μl water and were analyzed by HPLC on an anion exchange column (Alltech Hypersil APS-2, […], 250×4.6 mm). CDP-choline was eluted with a linear gradient of buffers A (H3PO4, 1.75 mM, pH 2.9) and B (NaH2PO2, 500 mM, pH 4.5) from 0 to 100% B over period of 30 min. With this system, CDP-choline was resolved from closely co-eluting substances such as UMP in an isocratic system over a period of 40 min. The retention time for CDP-choline was 9.5 min. The column was washed with buffer B at the end of each experiment and every several days to remove retained nucleotides. Individual nucleotide peaks were detected by UV absorption at 280 nm and were identified by comparison with the positions of authentic standards, as well as by the addition of nucleotide standards to samples.
To determine the effect of PUFA administration on CDP-choline levels, brain CDP-choline levels were measured in the animals from the previous Example. Administration of DHA and/or UMP decreased CDP-choline levels (FIG. 5A) and CDP-ethanolamine levels (FIG. 5B). DHA reduced CDP-choline levels by 26% (compared with those receiving just the control diet and DHA's vehicle), and in UMP-treated gerbils by 21% (compared with those receiving UMP-containing diet and DHA's vehicle) (both P<0.05).

PC-12 cells = assay: 14C-choline incorporation into phospholipids in PC-12 cells; assay type: cell-based; settings: 5 μM fatty acid, 18 hr pre-incubation, then 14C-choline 2.5 hr; FIG. 1
Experimental: PC-12 cells were maintained in Dulbecco's modified Eagle's medium (DMEM)+10% fetal bovine serum (FBS). For experiments, cells were grown in quintuplicate collagen-coated 35 millimeter (mm) dishes. Cells were incubated for 18 hours (hr) in serum-free DMEM containing 28 μM choline+/−5 micromolar (μM) of DHA, oleic acid, or palmitic acid. Cells were then labeled for 2.5 hr with 0.5 microcurie (μCi)/ml ^14C-choline in serum-free DMEM containing 10-micromolar (μM) choline.
as §1, with “To each sample was added 0.5 ml of 4.5% HclO4/27% H2SO4 and tubes were heated at 180° C. for 3 h. After cooling to room temperature, 5 ml of the color reagent (a 10:1 dilution of solutions containing 2.5 mg/ml ammonium molybdate, 8.2 mg/ml sodium acetate and 100 mg/ml ascorbic acid respectively) was added and the tubes were incubated for 2 h, 37° C.” left out
In order to assess the effect of omega-3 fatty acids on phospholipid synthesis, PC-12 cells were incubated with ^14C-labeled choline, following an 18-hour pre-incubation with or without DHA. Incorporation of label into phospholipids was then measured. […]
To further characterize the stimulation of phospholipid synthesis by omega-3 fatty acids, PC-12 cells were pre-treated with different doses of DHA and exposed to labeled choline as described in Example 1, then incorporation of ^14C-label into phospholipids was measured. […]

[3] = Table 9, nmol per microgram DNA

SMILES: CCCCCC=CCC=CCC=CCC=CCCCC(=O)O [AA, 5,8,11,14-eicosatetraenoic acid]
- Brain phospholipid levels ([1]; 3 weeks): increased
- Phospholipid synthesis enhanced (SHSY-5Y cells): enhanced
- Synthesis of total phospholipids, PC, and phosphatidylethanolamine (SHSY-5Y cells; range of dosages, FIG. 3B): increased

SMILES: CCC=CCC=CCC=CCC=CCC=CCCCC(=O)O [EPA, 5,8,11,14,17-eicosapentaenoic acid]
- Brain phospholipid levels ([1]; 3 weeks): increased

SMILES: O=c1ccn([C@@H]2O[C@H](COP(=O)(O)O)[C@@H](O)[C@H]2O)c(=O)[nH]1 [UMP, uridine monophosphate]
- PC ([2]; Table 8, nmol per mg protein): 95.3 nmol/mg protein
- PE ([2]; Table 8, nmol per mg protein): 75.6 nmol/mg protein
- PI ([2]; Table 8, nmol per mg protein): 3.92 nmol/mg protein
- SM ([2]; Table 8, nmol per mg protein): 5.27 nmol/mg protein
- Total Phospholipids ([2]; Table 8, nmol per mg protein): 282.2 nmol/mg protein
- PC [2, 3]: 8.11 nmol/microgram DNA
- PE [2, 3]: 6.56 nmol/microgram DNA
- PI [2, 3]: 0.352 nmol/microgram DNA
- SM [2, 3]: 0.458 nmol/microgram DNA
- Total Phospholipids [2, 3]: 24.78 nmol/microgram DNA
- CDP-choline levels (FIG. 5A) (brain CDP-choline levels): decreased
- CDP-ethanolamine levels (FIG. 5B) (brain CDP-choline levels): decreased
- Effects on brain phospholipids after 1 week of treatment ([1]; 1 week): no significant effects
- Increases in brain phospholipids ([1]; 3 weeks): smaller but still significant increases
- Increase in levels of total phospholipids over control group ([1]; 4 weeks, gerbil brain): 5%
- Total PtdCho ([1]; Table 5 part A): 171 ± 8 nmol/mg prt
- Total PtdEtn ([1]; Table 5 part A): 84 ± 8 nmol/mg prt
- Total PtdSer ([1]; Table 5 part A): 35 ± 3 nmol/mg prt
- Total Ptdins ([1]; Table 5 part A): 31 ± 2 nmol/mg prt
- Total PtdEtn ([1]; Table 5 part B, One Week): 63 ± 4 nmol/mg prt
- Total PtdSer ([1]; Table 5 part B, One Week): 39 ± 1 nmol/mg prt
- Total Ptdins ([1]; Table 5 part B, One Week): 20 ± 4 nmol/mg prt
- Total PtdEtn ([1]; Table 5 part B, Three Weeks): 87 ± 4 nmol/mg prt
- Total PtdSer ([1]; Table 5 part B, Three Weeks): 42 ± 2 nmol/mg prt
- Total Ptdins ([1]; Table 5 part B, Three Weeks): 25 ± 1 nmol/mg prt

SMILES: CCCCCCCC/C=C\CCCCCCCC(=O)O [oleic acid, reference compound]
- Phosphatidylcholine (PC) synthesis significantly increased (incorporation of 14C label into PC) (PC-12 cells): not

SMILES: CCCCCCCCCCCCCCCC(=O)O [palmitic acid, reference compound]
- Phosphatidylcholine (PC) synthesis significantly increased (incorporation of 14C label into PC) (PC-12 cells): not
- Phospholipid synthesis enhanced (SHSY-5Y cells): not
